# According to patent US10239832B2, “N-(1-hydroxy-3-(pyrrolidinyl)propan-2-yl)pyrrolidine-3-carboxamide derivatives as glucosylceramide synthase inhibitors” (BIOMARIN PHARMACEUTICAL INC., priority 2013, dated 2019):
# Biological target: T1, GCS (Canis lupus familiaris, UniProt A0A8I3MXG6)
# T1 construct: endogenous in cells; host or cells: MDCK (Madin-Darby canine kidney) cells, whole-cell lysate
# T1 sequence (A0A8I3MXG6 1-394): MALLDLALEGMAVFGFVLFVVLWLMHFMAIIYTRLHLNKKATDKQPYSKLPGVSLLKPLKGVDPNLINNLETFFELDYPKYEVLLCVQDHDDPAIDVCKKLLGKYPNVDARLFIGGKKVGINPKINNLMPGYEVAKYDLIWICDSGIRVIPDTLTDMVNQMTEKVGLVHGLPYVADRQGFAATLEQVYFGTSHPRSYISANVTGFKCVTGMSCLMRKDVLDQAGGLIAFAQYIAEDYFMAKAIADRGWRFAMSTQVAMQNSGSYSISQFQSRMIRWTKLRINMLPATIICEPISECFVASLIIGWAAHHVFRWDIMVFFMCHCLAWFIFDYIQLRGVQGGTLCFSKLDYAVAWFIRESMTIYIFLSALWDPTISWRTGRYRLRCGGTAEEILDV
# Assay: GCS enzymatic assay (MDCK cell lysate, NBD-ceramide to glucosylceramide, LC/MS)
# Assay type: biochemical, canine
# Conditions: Table 2; class symbols A, B, C; the table does not say which of the assays; read-out: Data Range (IC50 values)
# Method: This assay was modified based on the study by Larsen et al. (J. Lipid Res. 2011, 53, 282). Madin-Darby canine kidney (MDCK) cell lysate was prepared using M-PER Mammalian Protein Extraction Reagent (Thermal Scientific) in the presence of a protease inhibitor cocktail (Roche). Protein concentration was determined using BCA assay kit (Pierce). […] 0.1% DMSO was used as mock treatment or control. The reaction was terminated by adding 100 μL acetonitrile solution and subjected to LC/MS analysis.
# The quantitative analysis of NBD-Ceramide and glucosylceramide was performed on a Shimadzu ultra-fast liquid chromatography (Shimadzu, Japan) coupled with API 4000 triple quadrupole mass spectrometer (Applied Biosystems, Concord, Ontario, Canada). Sample separation was conducted on a Waters Xbridge™ BEH130 C18, 100 mm×4.6 mm i.d, 3.5 μm (Milford, Mass., USA). The mobile phase consisted of water and acetonitrile supplemented with 0.1% formic acid (v/v). The flow rate was 1.0 mL/min. The initial mobile phase was 20% acetonitrile and was ramped in a linear fashion to 50% acetonitrile in 0.4 min. From 0.4 to 1.5 min, the gradient was ramped to 98% acetonitrile, and then was held at […] until 8.0 min. Acetonitrile was reset to 20% in 1.5 min, and maintained until 10.0 min. The total run time was 10.0 min. The MS/MS detection was performed in ESI positive mode. The mass transition of NBD-Ceramide was m/z 576.36→558.40 under the collision energy of 15 V, and the mass transition of glucosylceramide was m/z 738.35→558.40 under 21V collision energy. The cell lysate was diluted with equal volume of acetonitrile. Aliquots of 50 μL diluted samples were added to 1.5 mL tubes, and 100 μL of acetonitrile containing internal standard (100 ng/mL tolbutamide) were added for protein precipitation. The mixture were vortexed and then centrifuged at 13000 rpm for 10 min. 70 μL of supernatant were mixed with 140 μL of H2O and the final solution were injected for LC/MS/MS analysis and IC50's and/or percent inhibitions calculated.
row,SMILES,IC50 [nM]
1,"CC(C)(C)c1ccc(N2CC[C@@H](C(=O)N[C@H](CN3CCCC3)[C@H](O)c3ccc(OC4CC4)c(Cl)c3)C2)cc1 [Compound 139, (R)-1-(4-(tert-butyl)phenyl)-N-((1R,2R)-1-(3-chloro-4-cyclopropoxyphenyl)-1-hydroxy-3-(pyrrolidin-1-yl)propan-2-yl)pyrrolidine-3-carboxamide]",30 to 100
2,"O=C(N[C@H](CN1CCCC1)[C@H](O)c1ccc2c(c1)OCCO2)C1CCN(c2ccc(Cl)cc2Cl)C1 (stereo in doubt) [Compound 12, (R)-1-(2,4-dichlorophenyl)-N-((1R,2R)-1-(2,3-dihydrobenzo[b][1,4]dioxin-6-yl)-1-hydroxy-3-(pyrrolidin-1-yl)propan-2-yl)pyrrolidine-3-carboxamide]",1 to 30
3,"CC1(C)CCc2ccc(N3CC[C@@H](C(=O)N[C@H](CN4CCCC4)[C@H](O)c4ccc5c(c4)OCCO5)C3)cc2O1 [Compound 71, (R)-N-((1R,2R)-1-(2,3-dihydrobenzo[b][1,4]dioxin-6-yl)-1-hydroxy-3-(pyrrolidin-1-yl)propan-2-yl)-1-(2,2-dimethylchroman-7-yl)pyrrolidine-3-carboxamide]",30 to 100
4,"O=C(N[C@H](CN1CCCC1)[C@H](O)c1cc(F)c2c(c1)OCCO2)[C@@H]1CCN(c2ccc3cc(Cl)ccc3n2)C1 [Compound 104, (R)-1-(6-chloroquinolin-2-yl)-N-((1R,2R)-1-(8-fluoro-2,3-dihydrobenzo[b][1,4]dioxin-6-yl)-1-hydroxy-3-(pyrrolidin-1-yl)propan-2-yl)pyrrolidine-3-carboxamide]",1 to 30
5,"O=C(N[C@H](CN1CCCC1)[C@H](O)c1cc(F)c2c(c1)OCCO2)[C@@]1(O)CCN(c2ccc(Cl)cc2)C1 [Compound 154C, (R)-1-(4-chlorophenyl)-N-((1R,2R)-1-(8-fluoro-2,3-dihydrobenzo[b][1,4]dioxin-6-yl)-1-hydroxy-3-(pyrrolidin-1-yl)propan-2-yl)-3-hydroxypyrrolidine-3-carboxamide]",100 to 1000
6,"O=C(N[C@H](CN1CCCC1)[C@H](O)c1ccc(OC2CC2)c(Cl)c1)[C@@H]1CCN(c2ccc(Cl)c(-c3ccc(F)cc3)c2)C1 [Compound 138, (R)-1-(6-chloro-4′-fluoro-[1,1′-biphenyl]-3-yl)-N-((1R,2R)-1-(3-chloro-4-cyclopropoxyphenyl)-1-hydroxy-3-(pyrrolidin-1-yl)propan-2-yl)pyrrolidine-3-carboxamide]",30 to 100
7,"O=C(N[C@H](CN1CCC1)[C@H](O)c1cc(F)c2c(c1)OCCO2)C1CCN(c2ccc3cc(F)ccc3c2)C1 (stereo partly drawn) [Compound 47A, N-((1R,2R)-3-(azetidin-1-yl)-1-(8-fluoro-2,3-dihydrobenzo[b][1,4]dioxin-6-yl)-1-hydroxypropan-2-yl)-1-(6-fluoronaphthalen-2-yl)pyrrolidine-3-carboxamide]",1 to 30
8,"O=C(N[C@H](CN1CCCC1)[C@H](O)c1ccc(OC2CC2)c(Cl)c1)[C@@H]1CCN(c2ccc3cc(Cl)sc3c2)C1 [Compound 109, (R)-N-((1R,2R)-1-(3-chloro-4-cyclopropoxyphenyl)-1-hydroxy-3-(pyrrolidin-1-yl)propan-2-yl)-1-(2-chlorobenzo[b]thiophen-6-yl)pyrrolidine-3-carboxamide]",30 to 100
9,"O=C(N[C@H](CN1CCCC1)[C@H](O)c1ccc(OC2CC2)c(Cl)c1)[C@@H]1CCN(c2cccc(Oc3ccc(F)cc3)n2)C1 [Compound 115, (R)-N-((1R,2R)-1-(3-chloro-4-cyclopropoxyphenyl)-1-hydroxy-3-(pyrrolidin-1-yl)propan-2-yl)-1-(6-(4-fluorophenoxy)pyridin-2-yl)pyrrolidine-3-carboxamide]",1 to 30

# Same assay, conditions: Table 2; class symbols D, E, F, NA (not active); the table does not say which of the assays
row,SMILES,Data Range (% inhibition)
1,"O=C(N[C@H](CN1CCCC1)[C@H](O)c1ccc2c(c1)OCCO2)[C@H]1CCN(c2nccs2)C1 [Compound 17D, (S)-N-((1R,2R)-1-(2,3-dihydrobenzo[b][1,4]dioxin-6-yl)-1-hydroxy-3-(pyrrolidin-1-yl)propan-2-yl)-1-(thiazol-2-yl)pyrrolidine-3-carboxamide]",NA (not active—a negative value was generated for % inhibition)
2,"O=C(N[C@H](CN1CCCCC1)[C@H](O)c1ccc2c(c1)OCCO2)[C@@H]1CCN(c2ccc(F)cc2)C1 [Compound 46, (R)-N-((1R,2R)-1-(2,3-dihydrobenzo[b][1,4]dioxin-6-yl)-1-hydroxy-3-(piperidin-1-yl)propan-2-yl)-1-(4-fluorophenyl)pyrrolidine-3-carboxamide]",F (1-49% (or less than 50%))
3,"O=C(N[C@H](CN1CCCC1)[C@H](O)c1ccc2c(c1)OCCO2)C1CCN(C2CCOCC2)C1 (stereo partly drawn) [Compound 9D, N-((1R,2R)-1-(2,3-dihydrobenzo[b][1,4]dioxin-6-yl)-1-hydroxy-3-(pyrrolidin-1-yl)propan-2-yl)-1-(tetrahydro-2H-pyran-4-yl)pyrrolidine-3-carboxamide]",F (1-49% (or less than 50%))
4,"O=C(N[C@H](CN1CCCC1)[C@H](O)c1ccc2c(c1)OCCO2)[C@H]1CCN(c2ccc(OC3CC3)nc2)C1 [Compound 58D, (S)-1-(6-cyclopropoxypyridin-3-yl)-N-((1R,2R)-1-(2,3-dihydrobenzo[b][1,4]dioxin-6-yl)-1-hydroxy-3-(pyrrolidin-1-yl)propan-2-yl)pyrrolidine-3-carboxamide]",F (1-49% (or less than 50%))
5,"O=C(N[C@H](CN1CCCC1)[C@H](O)c1ccc(OC2CC2)c(Cl)c1)[C@H]1CCN(c2ccc3cc(F)ccc3c2)C1 [Compound 84A, (S)-N-((1R,2R)-1-(3-chloro-4-cyclopropoxyphenyl)-1-hydroxy-3-(pyrrolidin-1-yl)propan-2-yl)-1-(6-fluoronaphthalen-2-yl)pyrrolidine-3-carboxamide]",F (1-49% (or less than 50%))
6,"O=C(N[C@H](CN1CCCC1)[C@H](O)c1ccc(OC2CC2)c(Cl)c1)[C@H]1CCN(c2ccc3c(c2)CCCC3)C1 [Compound 98A, (S)-N-((1R,2R)-1-(3-chloro-4-cyclopropoxyphenyl)-1-hydroxy-3-(pyrrolidin-1-yl)propan-2-yl)-1-(5,6,7,8-tetrahydronaphthalen-2-yl)pyrrolidine-3-carboxamide]",F (1-49% (or less than 50%))
7,"CCCCN1CCC(C(=O)N[C@H](CN2CCCC2)[C@H](O)c2ccc3c(c2)OCCO3)C1 (stereo partly drawn) [Compound 30, 1-butyl-N-((1R,2R)-1-(2,3-dihydrobenzo[b][1,4]dioxin-6-yl)-1-hydroxy-3-(pyrrolidin-1-yl)propan-2-yl)pyrrolidine-3-carboxamide]",NA (not active—a negative value was generated for % inhibition)
8,"O=C(N[C@H](CN1CCCC1)[C@H](O)c1ccc2c(c1)OCCO2)[C@@H]1CCN(c2ccc(OC3CC3)c(Cl)c2)C1 [Compound 20, (R)-1-(3-chloro-4-cyclopropoxyphenyl)-N-((1R,2R)-1-(2,3-dihydrobenzo[b][1,4]dioxin-6-yl)-1-hydroxy-3-(pyrrolidin-1-yl)propan-2-yl)pyrrolidine-3-carboxamide]",F (1-49% (or less than 50%))
9,"O=C(N[C@H](CN1CCCCC1)[C@H](O)c1ccc2c(c1)OCCO2)[C@H]1CCN(c2ccc(F)cc2)C1 [Compound 46B, (S)-N-((1R,2R)-1-(2,3-dihydrobenzo[b][1,4]dioxin-6-yl)-1-hydroxy-3-(piperidin-1-yl)propan-2-yl)-1-(4-fluorophenyl)pyrrolidine-3-carboxamide]",NA (not active—a negative value was generated for % inhibition)
10,"O=C(N[C@H](CN1CCCC1)[C@H](O)c1ccc(OCC(F)(F)F)nc1)[C@H]1CCN(c2ccc(Cl)cc2)C1 [Compound 33A, (S)-1-(4-chlorophenyl)-N-((1R,2R)-1-hydroxy-3-(pyrrolidin-1-yl)-1-(6-(2,2,2-trifluoroethoxy)pyridin-3-yl)propan-2-yl)pyrrolidine-3-carboxamide]",NA (not active—a negative value was generated for % inhibition)
